Assay results as given in US20240368118A1, “CEREBLON BINDING COMPOUNDS, COMPOSITIONS THEREOF, AND METHODS OF TREATMENT THEREWITH” (CELGENE CORPORATION, priority 2021, published 2024).
Structures can show the parent of a compound that is named as a salt.

Molecular target: T1, AR (Homo sapiens, UniProt P10275)
T1 construct: endogenous in cells; host or cells: VCaP cells
T1 sequence (P10275 1-920): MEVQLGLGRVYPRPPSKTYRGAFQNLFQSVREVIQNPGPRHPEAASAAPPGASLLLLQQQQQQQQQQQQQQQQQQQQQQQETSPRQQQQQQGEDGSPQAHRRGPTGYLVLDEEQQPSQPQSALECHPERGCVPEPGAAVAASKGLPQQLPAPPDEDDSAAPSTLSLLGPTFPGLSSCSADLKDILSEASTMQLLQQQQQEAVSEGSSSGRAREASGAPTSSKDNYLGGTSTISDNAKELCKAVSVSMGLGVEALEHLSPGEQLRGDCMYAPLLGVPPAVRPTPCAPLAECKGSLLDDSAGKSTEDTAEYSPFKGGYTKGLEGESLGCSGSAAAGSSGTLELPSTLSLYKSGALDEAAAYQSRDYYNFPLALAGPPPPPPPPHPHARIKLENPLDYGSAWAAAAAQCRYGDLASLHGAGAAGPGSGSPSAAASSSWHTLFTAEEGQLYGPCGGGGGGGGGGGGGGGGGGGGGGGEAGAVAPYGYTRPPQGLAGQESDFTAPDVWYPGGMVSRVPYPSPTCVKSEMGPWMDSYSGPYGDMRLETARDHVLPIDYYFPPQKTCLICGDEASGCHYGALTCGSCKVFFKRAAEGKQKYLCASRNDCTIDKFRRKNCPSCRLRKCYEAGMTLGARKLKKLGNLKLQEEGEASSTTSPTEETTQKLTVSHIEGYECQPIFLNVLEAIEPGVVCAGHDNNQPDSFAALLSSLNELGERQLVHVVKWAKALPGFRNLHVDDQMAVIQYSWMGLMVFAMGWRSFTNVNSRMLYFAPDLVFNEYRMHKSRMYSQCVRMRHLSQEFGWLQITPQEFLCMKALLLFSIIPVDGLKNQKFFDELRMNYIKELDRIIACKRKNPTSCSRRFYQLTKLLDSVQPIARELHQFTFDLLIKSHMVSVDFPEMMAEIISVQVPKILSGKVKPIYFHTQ
Experiment: VCAP AR Degradation Assay
Format: cell-based
Settings: VCaP cells, 24 h; for DC50: AR ELISA, concentration when AR level = 50% of DMSO control; for Ymin: lowest AR level normalized to DMSO control
Method in brief: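 VCaP cells in DMEM with 8% FBS treated 24 h at 37° C with a 10-point 1:3 series (top 5 μM final; 0.1% DMSO control). Total AR measured in lysates by sandwich ELISA and normalized to DMSO; DC50/EC50 from four-parameter logistic fit, with the lowest normalized AR level reported as Y.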

SMILES	DC50	Ymin (given as numbers)	Ymin (class symbols)
C[C@@H]1CN(CCCC[C@H]2CC[C@H](N3C(=S)N(c4ccc(C#N)c(C(F)(F)F)c4)C(=O)C3(C)C)CC2)C[C@H](C)N1CC(=O)Nc1ccc(C2CCC(=O)NC2=O)cc1 (stereo partly drawn) [Cmpd 30, 2-((2R,6S)-4-(4-((trans)-4-(3-(4-Cyano-3-(trifluoromethyl)phenyl)-5,5-dimethyl-4-oxo-2-thioxoimidazolidin-1-yl)cyclohexyl)butyl)-2,6-dimethylpiperazin-1-yl)-N-(4-(2,6-dioxopiperidin-3-yl)phenyl)acetamide]	≤ 5 nM	20 % of DMSO control	–
C[C@@H]1CN(CCO[C@H]2CC[C@H](N3C(=S)N(c4ccc(C#N)c(C(F)(F)F)c4)C(=O)C3(C)C)CC2)C[C@H](C)N1CC(=O)Nc1ccc(C2(C)CCC(=O)NC2=O)cc1 (single isomer, unassigned) [Cmpd 10, hydrochloride]	100 to 10000 nM	–	*** (30%<Y<80%)
CC1(C)C(=O)N(c2cnc(C#N)c(C(F)(F)F)c2)C(=S)N1[C@H]1CC[C@H](OCCCN2CCN(CC(=O)Nc3cccc(C4CCC(=O)NC4=O)c3)[C@@H](C(F)(F)F)C2)CC1 (stereo partly drawn) [Cmpd 32, 2-((R)-4-(3-(((trans)-4-(3-(6-Cyano-5-(trifluoromethyl)pyridin-3-yl)-5,5-dimethyl-4-oxo-2-thioxoimidazolidin-1-yl)cyclohexyl)oxy)propyl)-2-(trifluoromethyl)piperazin-1-yl)-N-(3-(2,6-dioxopiperidin-3-yl)phenyl)acetamide]	≤ 5 nM	20 % of DMSO control	–

Now from value to molecule, other results behind:

DC50	Ymin (given as numbers)	SMILES	Ymin (class symbols)
≤ 5 nM	12 % of DMSO control	CC1(C)C(=O)N(c2cnc(C#N)c(C(F)(F)F)c2)C(=S)N1[C@H]1CC[C@H](OCCCN2CCN(CC(=O)Nc3ccc(C4CCC(=O)NC4=O)cc3)[C@@H](C(F)(F)F)C2)CC1 (stereo partly drawn) [Cmpd 34, 2-((R)-4-(3-(((trans)-4-(3-(6-Cyano-5-(trifluoromethyl)pyridin-3-yl)-5,5-dimethyl-4-oxo-2-thioxoimidazolidin-1-yl)cyclohexyl)oxy)propyl)-2-(trifluoromethyl)piperazin-1-yl)-N-(4-(2,6-dioxopiperidin-3-yl)phenyl)acetamide]	–
≤ 5 nM	20 % of DMSO control	CC1(C)C(=O)N(c2cnc(C#N)c(C(F)(F)F)c2)C(=S)N1[C@H]1CC[C@H](OCCN2CCN(CC(=O)Nc3ccc(C4CCC(=O)NC4=O)cc3)[C@@H](C(F)(F)F)C2)CC1 (stereo partly drawn) [Cmpd 28, 2-((R)-4-(2-(((trans)-4-(3-(6-Cyano-5-(trifluoromethyl)pyridin-3-yl)-5,5-dimethyl-4-oxo-2-thioxoimidazolidin-1-yl)cyclohexyl)oxy)ethyl)-2-(trifluoromethyl)piperazin-1-yl)-N-(4-(2,6-dioxopiperidin-3-yl)phenyl)acetamide]	–
